Results: the Bradley open melting point set (2014)
Several values for one entry are separate records, joined by “and”; a condition that tells them apart may be missing. Identical values can stand only once.

Row | Structure (SMILES) | melting point
1 | O=C1c2ccccc2C(=O)c2c(Cl)cccc21 [1-chloroanthraquinone] | 160 °C
2 | CCCCCl [1-chlorobutane] | -123 °C
3 | CCCCCCCCCCCl [1-chlorodecane] | -31 °C
4 | CCCCCCCCCCCCCCCCCl [1-chlorohexadecane] | 9 °C
5 | CCCCCCCl [1-chlorohexane] | -94 °C
6 | O=C(O)C1=CCCCC1 [1-cyclohexene-1-carboxylic acid] | 32 °C
7 | O=c1ncnc2n(C3CCCCC3)[nH]cc1-2 [1-cyclohexyl-1,2-dihydro-4H-pyrazolo[3,4-d]pyrimidin-4-one] | 252 °C
8 | CCCCCCCCCCS(=O)(=O)Cl [1-decanesulfonyl chloride] | 32 °C
9 | CCCCCCCCCCO [1-decanol] | 7 °C
10 | CCCCCCCCCCCCS(=O)(=O)Cl [1-dodecanesulfonyl chloride] | 41 °C
11 | CCCCCCCCCCCCS [1-dodecanethiol] | -7 °C
12 | C=CCCCCCCCCCC [1-dodecene] | -35 °C
13 | C#CC1(O)CCCCC1 [1-ethynylcyclohexanol] | 32 °C
14 | O=[N+]([O-])c1ccc(F)c([N+](=O)[O-])c1 [1-fluoro-2,4-dinitrobenzene] | 27 °C
15 | CCCCCCCCCCCCCCCCCO [1-heptadecanol] | 58 °C
16 | C=CCCCCCCCCCCCCCC [1-hexadecene] | 4 °C
17 | CCCCCCS [1-hexanethiol] | -80 °C
18 | C=CCCCC [1-hexene] [listing 1 of 2 here] | -140 °C
19 | C=CCCCC [1-hexene] [listing 2 of 2 here] | -140 °C
20 | Cc1c(C#N)c2ccccc2n1O [1-hydroxy-2-methyl-1H-indole-3-carbonitrile] | 159 °C
21 | CC1(C)C(=O)NC(=O)N1CO [1-hydroxymethyl-5,5-dimethylhydantoin] | 105 °C
22 | O=[N+]([O-])c1ccccc1I [1-iodo-2-nitrobenzene] | 51 °C
23 | O=[N+]([O-])c1cccc(I)c1 [1-iodo-3-nitrobenzene] | 37 °C
24 | CCCCCCI [1-iodohexane] | -75 °C
25 | COc1cc(Cl)c(Cl)c(Cl)c1Cl [1-methoxy-2,3,4,5-tetrachlorobenzene] | 88 °C
26 | Cn1nnc2ccccc21 [1-methyl-1h-benzotriazole] | 65 °C

Row | Structure (SMILES) | melting point
27 | CCc1ccc(C)cc1 [1-methyl-4-ethylbenzene] | -62 °C
28 | CC1(O)CCCCC1 [1-methylcyclohexanol] | 26 °C
29 | CC1=CCCCC1 [1-methylcyclohexene] [listing 1 of 2 here] | -120 °C
30 | CC1=CCCCC1 [1-methylcyclohexene] [listing 2 of 2 here] | -120 °C
31 | Cc1cccc2c1Cc1ccccc1-2 [1-methylfluorene] [listing 1 of 2 here] | 85 °C
32 | Cc1cccc2c1Cc1ccccc1-2 [1-methylfluorene] [listing 2 of 2 here] | 85 °C
33 | Cc1cccc2ccccc12 [1-methylnaphthalene] | -22 °C
34 | CCCCCCn1c(=O)c2c(ncn2C)n(C)c1=O [1-n-hexyltheobromine] | 81 °C
35 | Oc1cccc2ccccc12 [1-naphthol] | 96 °C
36 | O=C(Cl)c1cccc2ccccc12 [1-naphthoyl chloride] | 18 °C
37 | O=C=Nc1cccc2ccccc12 [1-naphthyl isocyanate] | 4 °C
38 | O=[N+]([O-])c1ccc(/C=C/c2ccccc2[N+](=O)[O-])cc1 [1-nitro-2-[(E)-2-(4-nitrophenyl)ethenyl]benzene] | 139 °C
39 | C=CCCCCCCC [1-nonene] | -81 °C
40 | CCCCCCCCO [1-octanol] | -15 °C
41 | C=CCCCCCC [1-octene] | -102 °C
42 | C#CCCCCCC [1-octyne] | -79 °C
43 | CCCCCCCCCCCCCCCO [1-pentadecanol] | 46 °C
44 | C#CCCCCCCCCCCCCC [1-pentadecyne] | 10 °C
45 | CCCCCS [1-pentanethiol] | -76 °C
46 | N#CC1(c2ccccc2)C=Cc2ccccc21 (centres undefined) [1-phenyl-1H-indene-1-carbonitrile] | 77 °C
47 | c1ccc(N2CCNCC2)cc1 [1-phenylpiperazine] | 18 °C
48 | CCCCCCCCCCCCCCO [1-tetradecanol] | 40 °C
49 | C=CCCCCCCCCCCC [1-tridecene] | -23 °C
50 | C=CCCCCCCCCC [1-undecene] | -49 °C
51 | O=C(O)Cn1cncn1 [1h-1,2,4-triazole-1-acetic acid] | 203 °C
52 | CC(=O)c1c(C)c(C)c(C)c(C)c1C [2',3',4',5',6'-pentamethylacetophenone] | 86 °C

Row | Structure (SMILES) | melting point
53 | CCC(=O)c1ccc(O)cc1O [2',4'-dihydroxypropiophenone] | 100 °C
54 | CC(=O)c1cc(O)ccc1O [2',5'-dihydroxyacetophenone] | 206 °C
55 | CCC(=O)c1cc(O)ccc1O [2',5'-dihydroxypropiophenone] | 98 °C
56 | COc1ccc(OC)c(C(C)=O)c1 [2',5'-dimethoxyacetophenone] | 19 °C
57 | COc1cc(N)c(C(C)=O)cc1OC [2'-amino-4',5'-dimethoxyacetophenone] | 106 °C
58 | CC(=O)Nc1ccccc1C [2'-methylacetanilide] | 111 °C
59 | CC(=O)c1ccccc1[N+](=O)[O-] [2'-nitroacetophenone] | 27 °C
60 | Cc1ccc(C)c(-c2cc(C)ccc2C)c1 [2,2',5,5'-tetramethylbiphenyl] | 50 °C
61 | O=[N+]([O-])c1cc([N+](=O)[O-])c(C2CO2)cc1C1CO1 (centres undefined) [2,2'-(4,6-dinitrobenzene-1,3-diyl)dioxirane] | 154 °C
62 | ON=C(/C(=N\O)c1ccco1)c1ccco1 [2,2'-furil dioxime] | 165 °C
63 | O=C(c1ccco1)C(O)c1ccco1 (centres undefined) [2,2'-furoin] | 138 °C
64 | CCOC(O)C(Cl)(Cl)Cl (centres undefined) [2,2,2-trichloro-1-ethoxyethanol] | 50 °C
65 | CC(C)C(C)(C)C(C)(C)C [2,2,3,3,4-pentamethylpentane] | -36 °C
66 | COC(C)(C)OC [2,2-Dimethoxypropane] | -47 °C
67 | CC(C)(CO)CO [2,2-dimethyl-1,3-propanediol] | 128 °C and 126 °C
68 | CC(C)(C)CS [2,2-dimethyl-1-propanethiol] | -67 °C
69 | O[C@H]1O[C@H](COCc2ccccc2)[C@@H](OCc2ccccc2)[C@H](OCc2ccccc2)[C@H]1OCc1ccccc1 [2,3,4,6-tetra-o-benzyl-alpha-D-glucopyranose] | 151 °C
70 | O=C(O)C1CC2=C3C=CCC=C3N=C2CN1 (stereo not drawn) [2,3,4,9-tetrahydro-1H-beta-carboline-3-carboxylic acid] | 296 °C
71 | O=[N+]([O-])c1ccc(Cl)c(Cl)c1Cl [2,3,4-Trichloronitrobenzene] | 55.5 °C
72 | O[C@@H]1OC[C@@H](OCc2ccccc2)[C@@H](OCc2ccccc2)[C@@H]1OCc1ccccc1 [2,3,4-tri-o-benzyl-beta-D-arabinopyranose] | 69 °C
73 | OB(O)c1ccc(F)c(F)c1F [2,3,4-trifluorobenzeneboronic acid] | 203 °C
74 | O=Cc1ccc(O)c(O)c1O [2,3,4-trihydroxybenzaldehyde] | 167 °C
75 | COc1ccc(C=O)c(OC)c1OC [2,3,4-trimethoxybenzaldehyde] | 40 °C
76 | O=[N+]([O-])c1c(Cl)c(Cl)cc(Cl)c1Cl [2,3,5,6-tetrachloro-nitrobenzene] | 99.5 °C
77 | O=[N+]([O-])c1c(Cl)c(Cl)cc(Cl)c1Cl [2,3,5,6-tetrachloronitrobenzene] | 100 °C
78 | OB(O)c1c(F)c(F)cc(F)c1F [2,3,5,6-tetrafluorobenzeneboronic acid] | 143 °C

Row | Structure (SMILES) | melting point
79 | Oc1c(F)c(F)c(O)c(F)c1F [2,3,5,6-tetrafluorohydroquinone] | 169 °C
80 | Oc1c(F)c(F)cc(F)c1F [2,3,5,6-tetrafluorophenol] | 29 °C
81 | OB(O)c1cc(Cl)cc(Cl)c1Cl [2,3,5-trichlorobenzeneboronic acid] | 245 °C
82 | Oc1c(F)ccc(F)c1F [2,3,6-trifluorophenol] | 34 °C
83 | Oc1cccc(Cl)c1Cl [2,3-Dichlorophenol] | 56 °C
84 | c1ccc2cc3cc4ccccc4cc3cc2c1 [2,3-benzanthracene] | 341 °C
85 | CC(O)C(C)O (centres undefined) [2,3-butanediol] | 25 °C
86 | CC(=O)C(C)=NO [2,3-butanedione monoxime] | 76 °C
87 | Nc1cc2ccccc2cc1N [2,3-diaminonaphthalene] | 195 °C
88 | Nc1cccc(Cl)c1Cl [2,3-dichloroaniline] | 24 °C
89 | OB(O)c1cccc(Cl)c1Cl [2,3-dichlorobenzeneboronic acid] | 238 °C
90 | O=S(=O)(Cl)c1cccc(Cl)c1Cl [2,3-dichlorobenzenesulfonyl chloride] | 60 °C
91 | Oc1cccc(Cl)c1Cl [2,3-dichlorophenol] [listing 1 of 2 here] | 58 °C and 56 °C
92 | Oc1cccc(Cl)c1Cl [2,3-dichlorophenol] [listing 2 of 2 here] | 59 °C
93 | OB(O)c1ccnc(Cl)c1Cl [2,3-dichloropyridine-4-boronic acid] | 137 °C
94 | O=Cc1cccc(O)c1O [2,3-dihydroxybenzaldehyde] | 108 °C
95 | O=C(O)c1cccc(O)c1O [2,3-dihydroxybenzoic acid] | 206 °C
96 | Oc1cc2ccccc2cc1O [2,3-dihydroxynaphthalene] | 164 °C
97 | COC1=C(OC)C(=O)C(C)=CC1=O [2,3-dimethoxy-5-methyl-1,4-benzoquinone] | 59 °C
98 | COc1cccc(B(O)O)c1OC [2,3-dimethoxybenzeneboronic acid] | 69 °C
99 | COc1cccc(C#N)c1OC [2,3-dimethoxybenzonitrile] | 46 °C
100 | CC(C)C(C)(C)O [2,3-dimethyl-2-butanol] | -10 °C
101 | Clc1ccc(C(c2ccccc2Cl)C(Cl)(Cl)Cl)cc1 (centres undefined) [2,4'-DDT] | 75 °C
102 | O=C(CBr)c1ccc(Br)cc1 [2,4'-dibromoacetophenone] | 110 °C
103 | COc1ccc(C(=O)c2ccc(OC)cc2OC)cc1 [2,4,4'-trimethoxybenzophenone] | 72 °C
104 | CC(C)=C/C(C)(C)C [2,4,4-trimethyl-2-pentene] | -106 °C
